# Results taken from ChEMBL document CHEMBL1144969, “Structure-based design of thioether-bridged cyclic phosphopeptides binding to Grb2-SH2 domain” (Bioorg Med Chem Lett, 2003).
# Starred links: 1 amine or outer side, 2 acyl side, 3 side chain; linkers in the order of their positions; H or OH if unused. Positions of bridges follow the written chain, without caps; N, C: chain ends. Non-standard residues stand in square brackets, D forms with d. Residues, ends and D or L forms follow the SMILES beside them. pY = N[C@@H](Cc1ccc(OP(=O)(O)O)cc1)C(=O)O; tBuAla = CC(C)(C)C[C@H](N)C(=O)O; X1 = O=C(C[*:2])NCCC(=O)[*:1]; hCys = N[C@@H](CCS)C(=O)O; Ac6c = NC1(C(=O)O)CCCCC1
# Biological target: Growth factor receptor-bound protein 2 (Homo sapiens, UniProt P62993)
# Experiment: Inhibition of Growth factor receptor-bound protein 2 (Grb2) SH2 domain binding by ELISA
row,SMILES,IC50
1,CSCC[C@@H]1NC(=O)CNC(=O)[C@H](C(C)C)NC(=O)[C@H](CC(N)=O)NC(=O)[C@H](CCC(=O)O)NC(=O)[C@H](Cc2ccc(OP(=O)(O)O)cc2)NC(=O)[C@H](CC(C)C)NC(=O)CCNC(=O)CSC[C@@H](C(N)=O)NC(=O)[C@H](Cc2ccc(O)cc2)NC1=O (L[pY]ENVGMYC-NH2; linker N-9 via X1),8.26 nM
2,CSCC[C@@H]1NC(=O)CNC(=O)[C@H](C(C)C)NC(=O)[C@H](CC(N)=O)NC(=O)C2(CCCCC2)NC(=O)[C@H](Cc2ccc(OP(=O)(O)O)cc2)NC(=O)[C@H](CC(C)C)NC(=O)CCNC(=O)CSC[C@@H](C(N)=O)NC(=O)[C@H](Cc2ccc(O)cc2)NC1=O (L[pY][Ac6c]NVGMYC-NH2; linker N-9 via X1),21 nM
3,CSCC[C@@H]1NC(=O)CNC(=O)[C@H](C(C)C)NC(=O)[C@H](CC(N)=O)NC(=O)[C@H](CCC(=O)O)NC(=O)[C@H](Cc2ccc(OP(=O)(O)O)cc2)NC(=O)[C@H](CC(C)C)NC(=O)[C@H](C)NC(=O)CSCC[C@@H](C(N)=O)NC(=O)[C@H](Cc2ccc(O)cc2)NC1=O ({CH2CO}-AL[pY]ENVGMY[hCys]-NH2; thioether N-10),54.7 nM
4,CC(C)C[C@@H]1NC(=O)[C@H](C)NC(=O)CSC[C@@H](C(N)=O)NC(=O)[C@H](Cc2ccc(O)cc2)NC(=O)[C@H](C)NC(=O)CNC(=O)[C@H](C(C)C)NC(=O)[C@H](CC(N)=O)NC(=O)C2(CCCCC2)NC(=O)[C@H](Cc2ccc(OP(=O)(O)O)cc2)NC1=O ({CH2CO}-AL[pY][Ac6c]NVGAYC-NH2; thioether N-10),13.3 nM
5,CSCC[C@@H]1NC(=O)CNC(=O)[C@H](C(C)C)NC(=O)[C@H](CC(N)=O)NC(=O)[C@H](CCC(=O)O)NC(=O)[C@H](Cc2ccc(OP(=O)(O)O)cc2)NC(=O)[C@H](CC(C)C)NC(=O)CNC(=O)CSC[C@@H](C(N)=O)NC(=O)[C@H](Cc2ccc(O)cc2)NC1=O ({CH2CO}-GL[pY]ENVGMYC-NH2; thioether N-10),31.5 nM
6,CSCC[C@@H]1NC(=O)CNC(=O)[C@H](C(C)C)NC(=O)[C@H](CC(N)=O)NC(=O)[C@H](CCC(=O)O)NC(=O)[C@H](Cc2ccc(OP(=O)(O)O)cc2)NC(=O)[C@H](CC(C)C)NC(=O)[C@@H]2CCCN2C(=O)CSC[C@@H](C(N)=O)NC(=O)[C@H](Cc2ccc(O)cc2)NC1=O ({CH2CO}-PL[pY]ENVGMYC-NH2; thioether N-10),75.7 nM

# Next, values leading:
row,IC50,SMILES
1,1.68 nM,CC(C)[C@@H]1NC(=O)[C@H](CC(N)=O)NC(=O)C2(CCCCC2)NC(=O)[C@H](Cc2ccc(OP(=O)(O)O)cc2)NC(=O)[C@H](Cc2ccccc2)NC(=O)[C@H](C)NC(=O)CSC[C@@H](C(N)=O)NC(=O)[C@H](Cc2ccc(O)cc2)NC(=O)[C@H](CC(C)(C)C)NC(=O)CNC1=O ({CH2CO}-AF[pY][Ac6c]NVG[tBuAla]YC-NH2; thioether N-10)
2,25.3 nM,CSCC[C@@H]1NC(=O)CNC(=O)[C@H](C(C)C)NC(=O)[C@H](CC(N)=O)NC(=O)[C@H](CCC(=O)O)NC(=O)[C@H](Cc2ccc(OP(=O)(O)O)cc2)NC(=O)[C@H](CC(C)C)NC(=O)[C@H](C)NC(=O)CSC[C@@H](C(N)=O)NC(=O)[C@H](Cc2ccc(O)cc2)NC1=O ({CH2CO}-AL[pY]ENVGMYC-NH2; thioether N-10)
3,14.5 nM,CC(C)C[C@@H]1NC(=O)[C@H](C)NC(=O)CSC[C@@H](C(N)=O)NC(=O)[C@H](Cc2ccc(O)cc2)NC(=O)[C@H](CC(C)(C)C)NC(=O)CNC(=O)[C@H](C(C)C)NC(=O)[C@H](CC(N)=O)NC(=O)[C@H](CCC(=O)O)NC(=O)[C@H](Cc2ccc(OP(=O)(O)O)cc2)NC1=O ({CH2CO}-AL[pY]ENVG[tBuAla]YC-NH2; thioether N-10)
4,3.77 nM,CSCC[C@@H]1NC(=O)CNC(=O)[C@H](C(C)C)NC(=O)[C@H](CC(N)=O)NC(=O)C2(CCCCC2)NC(=O)[C@H](Cc2ccc(OP(=O)(O)O)cc2)NC(=O)[C@H](CC(C)C)NC(=O)[C@H](C)NC(=O)CSC[C@@H](C(N)=O)NC(=O)[C@H](Cc2ccc(O)cc2)NC1=O ({CH2CO}-AL[pY][Ac6c]NVGMYC-NH2; thioether N-10)
5,137 nM,CSCC[C@@H]1NC(=O)CNC(=O)[C@H](C(C)C)NC(=O)[C@H](CC(N)=O)NC(=O)[C@H](CCC(=O)O)NC(=O)[C@H](Cc2ccc(OP(=O)(O)O)cc2)NC(=O)[C@H](CC(C)C)NC(=O)[C@H](CCC(=O)O)NC(=O)CSC[C@@H](C(N)=O)NC(=O)[C@H](Cc2ccc(O)cc2)NC1=O ({CH2CO}-EL[pY]ENVGMYC-NH2; thioether N-10)
6,7.65 nM,CC(C)C[C@@H]1NC(=O)[C@@H]2CCCN2C(=O)CSC[C@@H](C(N)=O)NC(=O)[C@H](Cc2ccc(O)cc2)NC(=O)[C@H](CC(C)(C)C)NC(=O)CNC(=O)[C@H](C(C)C)NC(=O)[C@H](CC(N)=O)NC(=O)C2(CCCCC2)NC(=O)[C@H](Cc2ccc(OP(=O)(O)O)cc2)NC1=O ({CH2CO}-PL[pY][Ac6c]NVG[tBuAla]YC-NH2; thioether N-10)
